Key:
Assay in all cases: relative viability (nuclei count vs DMSO), 5 days (fraction); higher = more cells survive
[1] = compound: CN1CCN(CC1)C2=CC(=C(C=C2)NC3=NC(=C(S3)C(=O)C4=C(C=CC=C4Cl)Cl)N)OC [XMD14-99] + C[C@]1(O)C[C@@H](c2nc(-c3ccc4ccc(-c5ccccc5)nc4c3)c3c(N)nccn32)C1 [Linsitinib] (partner 1 µM)
Procedure, shortened: (§1)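 Dosing by pin tool came one day after lung cancer cell lines were seeded in 1536-well plates, using either one drug or a fixed anchor-drug dose plus five library-drug doses (not always all listed) in √10 steps. After 5 days, nuclei were counted on 4× images. Relative viability is treated-well nuclei count divided by vehicle-well nuclei count, and values are medians of duplicate plates.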

[2] = compound: N[C@@H]1CCCN(c2c(/C=C3\SC(=O)NC3=O)cccc2-c2ccccc2)C1 [AZD1208] + C[C@@H](Oc1cc(-c2cnn(C3CCNCC3)c2)cnc1N)c1c(Cl)ccc(F)c1Cl [Crizotinib] (partner 1 µM)
Procedure, shortened: as §1

[3] = compound: N[C@@H]1CCCN(c2c(/C=C3\SC(=O)NC3=O)cccc2-c2ccccc2)C1 [AZD1208] + Nc1nc2[nH]cc(CCc3ccc(C(=O)N[C@@H](CCC(=O)O)C(=O)O)cc3)c2c(=O)[nH]1 [Pemetrexed] (partner 0.2 µM)
Procedure, shortened: as §1

[4] = compound: N[C@@H]1CCCN(c2c(/C=C3\SC(=O)NC3=O)cccc2-c2ccccc2)C1 [AZD1208] + O=C(c1cc(Cc2n[nH]c(=O)c3ccccc23)ccc1F)N1CCN(C(=O)C2CC2)CC1 [Olaparib] (partner 8 µM)
Procedure, shortened: as §1

Row | Cell Line | relative viability ([1]; first compound 0.08 µM) | relative viability ([1]; first compound 0.8 µM) | relative viability ([1]; first compound 2.53 µM) | relative viability ([1]; first compound 8 µM) | relative viability ([2]; first compound 0.08 µM) | relative viability ([2]; first compound 0.253 µM) | relative viability ([2]; first compound 0.8 µM) | relative viability ([2]; first compound 2.53 µM) | relative viability ([2]; first compound 8 µM) | relative viability ([3]; first compound 0.08 µM) | relative viability ([3]; first compound 0.253 µM) | relative viability ([3]; first compound 0.8 µM) | relative viability ([3]; first compound 2.53 µM) | relative viability ([3]; first compound 8 µM) | relative viability ([4]; first compound 0.08 µM) | relative viability ([4]; first compound 0.253 µM) | relative viability ([4]; first compound 0.8 µM) | relative viability ([4]; first compound 2.53 µM) | relative viability ([4]; first compound 8 µM)
1 | NCI-H1975 | 0.872 | 0.97 | 0.81 | 0.663 | 0.925 | 1.03 | 0.991 | 0.933 | 0.915 | 0.288 | 0.295 | 0.282 | 0.286 | 0.327 | 0.734 | 0.755 | 0.766 | 0.883 | 0.793
2 | CAL-12T | 0.796 | 0.826 | 0.709 | 0.641 | 0.745 | 0.838 | 0.718 | 0.85 | 0.471 | 1.21 | 1.22 | 1.18 | 1.23 | 1.14 | 0.81 | 0.737 | 0.633 | 0.711 | 0.797
3 | HCC-44 | 0.719 | 0.692 | 0.708 | 0.61 | 0.828 | 0.905 | 0.788 | 0.879 | 0.82 | 0.636 | 0.592 | 0.62 | 0.688 | 0.639 | 0.989 | 0.918 | 0.999 | 0.996 | 0.919
4 | EKVX | 1.01 | 1.05 | 0.993 | 0.81 | 0.887 | 1.29 | 0.86 | 1.01 | 0.88 | 0.411 | 0.441 | 0.404 | 0.425 | 0.404 | 0.793 | 0.941 | 0.811 | 0.829 | 0.821
5 | NCI-H1651 | 0.941 | 0.886 | 0.904 | 0.84 | 0.899 | 0.918 | 0.83 | 0.835 | 0.81 | 0.626 | 0.57 | – | 0.569 | 0.555 | 0.198 | 0.186 | – | 0.172 | 0.172
6 | NCI-H1944 | 1.23 | 1.19 | 1.12 | 1.04 | 1.14 | 1.16 | 0.985 | 1.01 | 0.827 | 0.593 | 0.652 | 0.591 | 0.579 | 0.535 | 0.387 | 0.411 | 0.361 | 0.373 | 0.344
7 | NCI-H1703 | 0.843 | 0.888 | 0.752 | 0.57 | 0.365 | 0.53 | 0.579 | 0.594 | 0.461 | – | – | – | – | – | 0.416 | 0.334 | 0.268 | 0.384 | 0.337
8 | Calu-6 | 0.918 | 0.918 | 0.883 | 0.732 | 0.615 | 0.952 | 0.672 | 0.711 | 0.758 | – | – | – | – | – | 0.572 | 0.648 | 0.591 | 0.592 | 0.639
9 | EBC-1 | 0.885 | 0.77 | 0.762 | 0.702 | 0.19 | 0.171 | 0.174 | 0.165 | 0.183 | – | – | – | – | – | 0.709 | 0.707 | 0.63 | 0.687 | 0.624
10 | A-427 | 1.15 | 1.08 | 1.01 | 0.904 | 0.888 | 0.974 | 0.797 | 0.851 | 0.767 | 0.971 | 1.05 | 0.847 | 1.03 | 0.911 | 0.674 | 0.758 | 0.605 | 0.713 | 0.661
11 | NCI-H2405 | 0.913 | 0.992 | 0.9 | 0.566 | 0.831 | 0.86 | 0.782 | 0.81 | 0.838 | 1.01 | 1 | 1.02 | 1.02 | 0.95 | 0.806 | 0.837 | 0.813 | 0.813 | 0.891
12 | NCI-H1355 | 0.796 | 0.809 | 0.74 | 0.633 | 0.974 | 1.09 | 0.997 | 1.06 | 0.916 | 1.1 | 0.944 | 0.934 | 1.04 | 1.04 | 0.717 | 0.689 | 0.672 | 0.68 | 0.657
13 | NCI-H358 | 0.703 | 0.673 | 0.557 | 0.29 | 0.537 | 0.559 | 0.499 | 0.566 | 0.438 | 0.153 | 0.181 | 0.167 | 0.173 | 0.145 | 0.636 | 0.515 | 0.501 | 0.544 | 0.525
14 | RERF-LC-KJ | 0.878 | 0.888 | 0.873 | 0.743 | 0.868 | 0.863 | 0.835 | 0.791 | 0.792 | 0.515 | 0.441 | 0.505 | 0.476 | 0.491 | 0.826 | 0.965 | 0.857 | 0.825 | 0.673
15 | NCI-H23 | 0.516 | 0.617 | 0.59 | 0.527 | 0.377 | 0.467 | 0.372 | 0.426 | 0.34 | 0.604 | 0.698 | 0.632 | 0.704 | 0.703 | 0.321 | 0.324 | 0.292 | 0.298 | 0.279
16 | HOP-62 | 0.965 | 0.894 | 0.794 | 0.894 | 0.991 | 0.869 | 0.895 | 0.883 | 0.969 | 0.298 | 0.345 | 0.28 | 0.289 | 0.269 | 0.39 | 0.417 | 0.326 | 0.341 | 0.37
17 | HARA | 0.901 | 0.946 | 0.701 | 0.605 | 0.938 | 1.02 | 1.02 | 1.02 | 0.943 | 0.251 | 0.206 | 0.292 | 0.282 | 0.227 | 0.825 | 0.471 | 0.646 | 0.743 | 0.895
18 | PC-14 | 1.08 | 0.932 | 0.958 | 0.684 | 0.925 | 1.02 | 0.991 | 0.923 | 0.906 | 0.125 | 0.132 | 0.14 | 0.153 | 0.165 | 0.381 | 0.248 | 0.27 | 0.365 | 0.257

From the supplement of paper PMC10307832
